The test system of data set [1] is healthy volunteers. As to the kind of experiment: concentration-QTc analysis, linear mixed-effects model (Example 7A). The data set is classed as in vivo, human. How it is done: The effect of amisulpride (enantiomers and total) on change-from-baseline QTcF and heart rate (ΔQTcF and ΔHR) was evaluated based on a linear mixed-effects model at each nominal post-dosing time point (“by-time point analysis”) using the intersection union test. In the concentration-QTc analysis (primary analysis), the full model included ΔQTcF as the dependent variable, time-matched plasma concentrations of R- and S- and total amisulpride enantiomers as the explanatory variates, centered baseline QTcF (i.e., baseline QTcF for individual subject subtracting the population mean baseline QTcF for all subjects) as an additional covariate, a fixed intercept, and random effect for both intercept and slopes per subject, when applicable. A pre-specified model selection procedure was then performed to choose a primary model from among the full model and reduced models from possible first order combinations (without quadratic and interaction terms) among these 3 analytes of concentrations of R- and S-enantiomers and total amisulpride (including models with only 1 analyte and with any 2 analytes).
The observations and a linear mixed-effects model parameters derived therefrom was used to estimate the ΔQTcF at the observed Cmax of the formulation Lots studied.

The conditions of data set [2]: human, in vivo, po.
The conditions of data set [3]: Coukell et al 1996; cited from earlier work.
Another data set in a line: clinical. The conditions noted are these: human, in vivo.
The test system of a further data set is freely moving rats. Kind of data set: Sleep study of (R)-amisulpride, EEG/EMG (Example 3A). The data set is classed as in vivo, rat. As to conditions: 10, 30, 100 mg/kg, p.o. How it is done:
Rapid eye movement (REM) sleep time, non-rapid eye movement (NREM) sleep time, WAKE time were measured using electroencephalogram (EEG) and electromyogram (EMG) recordings. […] EEG and EMG recordings were made for 6 hr starting at the beginning of the light phase. Vehicle (0.05 N HCl/0.5% Methyl Cellulose 400 solution) or dosing suspensions were orally administered 10 min before the beginning of light phase. The volume of administration was 5 mL/kg. The order of drug treatment varied pseudo-randomly and at least 1 week was allowed between the experiments for individual animals.
A radio transmitter (TL11M2-F40-EET; Data Science International, New Brighton, Minn., USA) was implanted subcutaneously in the back of anesthetized animals, and a pair of electrode wires was stereotaxically implanted into the skull in the following locations: one in the frontoparietal (2 mm anterior to the bregma and 2 mm left to the midline), and the other in parietal (5 mm posterior to the bregma and 2 mm right to the midline) areas. The EEG electrodes were fixed using dental cement. Electromyograms (EMG) were recorded from the dorsal neck muscle. […] EEG/EMG were recorded in the home cages in a soundproof box using Dataquest A.R.T. software (Data Science International, New Brighton, Minn., USA) at a sampling rate of 500 Hz. […]

Data set [4] concerns healthy volunteers. Kind of data set: REM suppression polysomnography (PSG) study of (R)-amisulpride (Example 5). It counts as in vivo, human. How it is done: REM suppression was the biomarker used to determine clinically-significant levels of 5-HT7 antagonism and its pharmacodynamics. REM suppression was assessed by total time in minutes spent in REM sleep and by the latency in minutes to REM sleep. […] REM suppression in human volunteers is an established translational biomarker useful to identify doses for antidepressant effects in patients.
The primary endpoint was REM sleep suppression as determined at post dose time points in the measures of latency to REM sleep, REM sleep time in minutes, and percent decrease in REM sleep time relative to total sleep time.
The REM suppression time value is the Least Square Mean differences from placebo, and the error bars represent the 90% confidence interval (CI).
The results presented in Tables 21-23 were determined from an analysis of the date based on a linear mixed model with terms for treatment, period, and treatment sequence as fixed effects, respective baseline PSG value as a continuous covariate, and treatment-by-baseline PSG interaction, and subject nested within sequence as a random effect, the Kenward and Roger correction for the degrees of freedom and an unstructured covariance structure to model the intrasubject correlation. The abbreviations used in Tables 21-23 are as follows: PSG=polysomnography; CI=confidence interval; LS=least-squares; REM=rapid eye movement; SE=standard error.

Where [5] appears, read: linear mixed-effects model, total amisulpride concentration vs ΔQTcF.

For the compound `CCN1CCCC1CNC(=O)c1cc(S(=O)(=O)CC)c(N)cc1OC` (stereo not drawn) [amisulpride, 4-amino-N-[(1-ethylpyrrolidin-2-yl)methyl]-5-ethylsulfonyl-2-methoxy-benzamide], the “estimated population slope of the concentration-QTc relationship” value in the data set with healthy volunteers [1] (90% CI: 0.0257 to 0.0369) is listed as 0.031 ms per ng/mL. In addition, the “intercept of the concentration-QTc relationship” value in the data set with healthy volunteers [1] (90% CI: −4.88 to 0.27) was -2.3 ms. Also, in the data set on healthy volunteers [1] (setting [5]), the “Centered Baseline Effect of concentration-QTc relationship model” value was -0.23 ms, the “Intercept of concentration-QTc relationship model” value was -2.31 ms and the “Total Amisulpride Slope of concentration-QTc relationship model” value is 0.031 ms per ng/mL. In data set [2], the “washout observed for blood plasma concentration” value is listed as “approximately 24 hour”. In addition, the terminal plasma half-life result in data set [3] is recorded as “approximately 12 hours”. In the data set “clinical”, this compound displayed a concentration at 0.5 hr of 346 ng/mL, a concentration at 1 hr of 294 ng/mL, a concentration at 2 hr of 432 ng/mL and a concentration at 3 hr of 516 ng/mL. In the data set “clinical”, this compound returned a concentration at 4 hr of 272 ng/mL, a concentration at 6 hr of 163 ng/mL, a concentration at 8 hr of 96.8 ng/mL and a concentration at 10 hr of 69.9 ng/mL. In “clinical”, this compound came in with a concentration at 12 hr of 55.6 ng/mL, a concentration at 24 hr of 21.2 ng/mL, a concentration at 36 hr of 9.84 ng/mL and a concentration at 48 hr of 7.02 ng/mL. For the same compound, the concentration at 72 hr in the data set “clinical” stood at 1.48 ng/mL.

On to `CCN1CCC[C@@H]1CNC(=O)c1cc(S(=O)(=O)CC)c(N)cc1OC` [(R)-amisulpride, R-4-Amino-N-[(1-ethyl-2-pyrrolidinyl)methyl]-5-(ethylsulfonyl)-2-methoxybenzamide], for which, in the data set on freely moving rats, the “NREM sleep time and WAKE time” value is reported as “no observed effect”. In addition, the REM sleep duration result with freely moving rats (light phase) was “reduced REM sleep duration in dose-dependent manner”. Moreover, the tolerability entry in the data set with healthy volunteers [4] (healthy subjects) is given as “well tolerated”. The “vital signs and ECGs” value in the data set with healthy volunteers [4] (in vivo) is on record as “normal”.
